Where no end group is shown, it is not given here.
Legend:
[1] = Single-channel electrical recordings in planar lipid bilayers; format: biochemical; conditions: Supplementary Table 1
Description: High-resolution electrical recordings for the single-channel characterization were conducted in planar lipid bilayers made up of 1,2-diphytanoyl-sn-glycero-3-phosphocholine (DPhPC, Avanti Polar Lipids)[23],[27],[51]. The lipid bilayer is formed across a polytetrafluoroethylene (Teflon) aperture of ~100 µm in diameter. Teflon is placed between the two sides of the Delrin bilayer chamber, partitioning it into cis and trans compartments (600 µL each). For constructing a solvent-free lipid bilayer, the aperture is made lipophilic by pre-painting both sides with hexadecane in n-pentane (1 μL, 5 mg mL^−1)[51]. After ~10 min, the chambers were filled with buffered electrolytes (1 M KCl, 10 mM HEPES, pH 7.4), and DPhPC in n-pentane (1 μL, 5 mg mL^−1) was added. After ~15 min incubation, the lipid bilayer is formed by raising and lowering the electrolyte solution, bringing the two lipid monolayers together at the aperture. The cis compartment was connected to the ground electrode, while the trans compartment was connected to the working live electrode. Subsequently, DpPorA or DpPorA DE peptides solubilized in 0.1% DDM (1 µL, 100 µg mL^−1) were consistently introduced into the cis compartment of the bilayer. The peptide pore insertion was facilitated by mixing the bilayer chamber and applying a high voltage of +200 mV. The single-channel electrical properties of the peptide pores and analyte-induced pore blockages were examined in 1 M KCl, 10 mM HEPES, pH 7.4. Ion selectivity was assessed under asymmetric salt conditions with a KCl concentration gradient across the planar lipid bilayer (0.15 M cis/1 M trans) (SI text)[27]. The ion current was acquired and amplified using an Axopatch 200B amplifier, digitized with Digidata 1550B digitizer, and recorded using the pClamp 11 acquisition software (Molecular Devices, CA). The current signals were filtered with a 2 kHz low-pass filter frequency and 10 kHz sampling frequency, or with 10 kHz low-pass filter frequency and 50 kHz sampling frequency, in line with the requirement.

MDA-MB-231 cells = format: cell-based, human; conditions: 10 µM and 20 µM, 24 h, MTT, n = 3
Description: The MDA-MB-231 cell line was obtained from ATCC (Kind gift from Dr. Annapoorni Rangarajan, Indian Institute of Science, Bengaluru, Karnataka, India) and tested negative for mycoplasma contamination. Cells were cultured in DMEM (Gibco, 11965-092) supplemented with 10% FBS (Thermo Fisher Scientific, 10270-106) and Penicillin (100 Units/mL) /Streptomycin (100 µg/mL) (Thermo Fisher Scientific, 15070-063). […] Cell proliferation was measured 24 h after the addition of Peptide/ DDM using MTT assay (3-(4,5-dimethylthiazol-2-yl)-2,5-diphenyltetrazolium bromide, M6494, Thermo Fischer Scientific). […] The purple-colored formazan crystals were dissolved by adding 100 µL DMSO (D5879, Sigma Aldrich), and the absorbance at 570 nm was measured using a plate reader (EMax plus microplate reader). […]
Immunofluorescence (IF) images were analyzed to assess the impact of different treatments on cell membrane integrity. […] We evaluated a t least 100 cells for each group - Control, DDM-treated cells and peptide-treated cells- with independent analysis done by a student blinded to the groups' identity . […]
indicating a loss of cell membrane integrity. This categorization provided a clear and systematic approach to quantify the effects of various treatments on cell membrane integrity. […]

Sequence | experimental conductance Gexp [1] [nS] | change in cell viability (MDA-MB-231 cells)
MIDQITEIFGQLGTFLGGFGNIFKGLKAVIATIVKWTAAK [LpPorA DE] | 3.8 ± 0.2 | –
MIDQITEIFGQLGTFLGGFGNIFKGLKDVIETIVKWTAAK [LpPorA] | 3.0 ± 0.2 | no significant change in viability

Reference: paper PMC12491518, “Fabrication of cytotoxic mirror image nanopores” (Nature Communications, 2025)
